Experiments:
BJ = assay: Cytotoxic MTS assay, BJ fibroblasts; type: cell-based; conditions: BJ, human fibroblasts, 72 h, median of five assays
Text: (§1) The cancer cell lines used in the cytotoxic assays were acquired from the American Tissue Culture Collection (ATCC) (Manassas, VA, USA) and maintained as described previously. The MRC-5 and BJ human fibroblasts were used as non-tumoral control cells. The (MRC-5 LD and BJ LD) are also human fibroblast cell lines resistant to doxorubicin. […] The Raji and Ramos cell lines correspond to B-cell leukemia. Other cells, such as U2OS, represent a child osteosarcoma, while HCT116 is a colorectal tumor cell line. (HCT116p53^−/−, Horizon Discovery Ltd., Cambridge, UK) is a similar cell line with its p53 gene knocked down, serving as a model of human cancer frequently associated with a poor prognosis. The cells were maintained in Nunc/corning 80 cm^2 plastic tissue culture flasks and cultured in a cell culture medium according to ATCC or Horizon recommendations (McCoy, DMEM/RPMI 1640 with 5 g/L glucose, 2 mM glutamine, 100 U/mL penicillin, […] streptomycin, 10% fetal calf serum, and NaHCO3). The compounds were freshly dissolved in DMSO. The final concentration of DMSO was 0.01% in the cell culture.
(§2) The in vitro cytotoxicity of compounds (1–7) was assessed using the standard 3-(4,5-dimethyl-thiazol-2yl)-5-(3-carboxymethoxyphenyl)-2-(sulfophenyl)-2H-tetrazolium (MTS). The assay was performed at the Institute of Molecular and Translational Medicine using a robotic platform (High-ResBiosolutions, Beverly, MA, USA). Cell suspensions were prepared and diluted according to the specific cell type and the expected target cell density (25,000–35,000 cells/mL, based on cell growth characteristics). An automatic pipettor (30 μL) was used to add cells into 384-well microtiter plates. All tested compounds were dissolved in 100% DMSO, and four-fold dilutions of the intended test concentrations were added in 0.15 μL aliquots at time zero to the microtiter plate wells by the echo acoustic non-contact liquid handler Echo550 (Labcyte, San Jose, CA, USA). The assays were accomplished in technical duplicates and at least three biological replicates. The cells were incubated with the tested compound for 72 h at 37 °C in a 5% CO2 atmosphere with 100% humidity. At the end of the incubation period, cells were assayed using the MTS test. Aliquots (5 μL) of the MTS stock solution were pipetted into each well and incubated for 1–4 h. After this incubation period, the optical density (OD) was measured at 490 nm using an Envision reader (PerkinElmer, Waltham, MA, USA). Tumor cell survival (TCS) was calculated using the following equation: TCS = (OD drug-exposed well/mean OD control wells) × 100%. The IC50 value, representing the concentration of the compound lethal to 50% of the tumor cells, was calculated from the corresponding dose-response curves using Dotmatics software (Updated version 2022, London, UK). After three days of incubation on the cancer cell lines and normal fibroblasts, the […] (IC50) were obtained. Five assays were performed for each cell line. The standard error of the assays was lower than 10%, as assessed by the triplicate assays.

K562 = assay: Cytotoxic MTS assay, K562; type: cell-based; conditions: K562, human leukemia cell line, 72 h, median of five assays
Text: as §1, §2

RAJI = assay: Cytotoxic MTS assay, Raji; type: cell-based; conditions: Raji, human leukemia cell line, 72 h, median of five assays
Text: as §1, §2

HCT116 par = assay: Cytotoxic MTS assay, HCT116 parental 2D; type: cell-based; conditions: HCT-116, human tumors 2D, 72 h, median of five assays
Text: as §1, §2

A549 = assay: Cytotoxic MTS assay, A549 2D; type: cell-based; conditions: A549, human tumors 2D, 72 h, median of five assays
Text: as §1, §2

U2OS = assay: Cytotoxic MTS assay, U2OS 2D; type: cell-based; conditions: U2OS, human tumors 2D, 72 h, median of five assays
Text: as §1, §2

HCT116 par spheroids = assay: Spheroid viability assay (CellTiter-Glo 3D), HCT116 parental spheroids; type: cell-based; conditions: HCT-116, human tumors spheroids, 72 h, 100 pM to 50 μM
Procedure: (§3) Spheroid culture aims to analyze the drug’s effect on complex structures resembling solid tumors. The spheroids were prepared using the specific nonadherent plates for spheroid formation (Nunc Sphera, Thermo Fisher, Waltham, MA, USA) according to the simple protocol outlined by the manufacturer. The cell lines HCT116 parental, HCT116KOTp53, A549, and U2OS were cultured at a density of 2500 cells per well using medium containing 10% fetal calf serum and antibiotics: McCoy’s 5A medium for HCT116, F-12K (Kaighn’s Modified) for A549, and Dulbecco’s Modified Eagle Medium (DMEM). The cells were grown in culture for 48 h as recommended by the manufacturer and as described by Das et al. and Muñoz-Garcia et al..
(§4) The cell viability of the treated spheroids was assessed using the kit CellTiter-Glo 3D (Promega Corporation, Madison, WI, USA). The kit is designed to measure ATP as an indicator of viability, generating a luminescent readout that is more sensitive than colorimetric or fluorescence-based methods. The spheroids were cultivated with compounds at concentrations ranging from 100 pM to 50 μM in triplicate for 72 h, and the luminescence was measured using the Enspire apparatus (PerkinElmer). A standard curve was performed for each analysis as recommended by the manufacturer.

HCT116KO53 spheroids = assay: Spheroid viability assay (CellTiter-Glo 3D), HCT116 p53 KO spheroids; type: cell-based; conditions: HCT-116, human tumors spheroids, 72 h, 100 pM to 50 μM
Procedure: as §3, §4

caspase 8 = assay: Caspase 8 activity in lysed HCT116 cells from 2D and spheroids; type: cell-based, human; conditions: 12 h; for Caspase 8 activity, spheroid culture: HCT116 parental spheroids, 25 µM (cisplatin 15 μM); for Caspase 8 activity, 2D culture: HCT116 parental, 25 µM
Procedure: (§5) The assay was designed to evaluate the impact of various compounds on caspase activity using a standardized quantity of cell protein lysates after 12 h of incubation. The parental line HCT116 served as the basis for these experiments. Three distinct caspases were examined employing the fluorescence assay kits from Calbiochem (San Diego, CA, USA), specifically a fluorometric caspase-8 assay kit and a fluorimetric caspase-3 assay kit. Additionally, the fluorometric kit from Abcam was utilized to assess caspase-9 activity. Due to the variations in protocols for each caspase, separate plates were prepared for each assay, encompassing both two-dimensional (2D) cell cultures and spheroids. The compound concentrations were established at 25 µM, and assays were conducted in quintuplicate following a 12-h incubation period. The cells were harvested from the plates using the standard trypsin-EDTA solution (Merck Sigma Aldrich, Saint Louis, MO, USA), washed, and counted before lysis, as described in each kit. Cell processing adhered to the guidelines provided by the respective companies, and protein concentration was calculated and standardized using the standard BCA assay. Fluorescent readings were captured using the Enspire apparatus (Perkin-Elmer, MA, USA). Positive controls utilized included staurosporine at a concentration of 5 μM and cisplatin at 15 μM. The kits provided their own standards; however, to normalize all the readings between cultures, types, and treatments, the results were expressed as a percentage relative to the positive control, staurosporine, in 2D culture. […] A total of three separate assays were conducted for each caspase.

caspase 3 = assay: Caspase 3 activity in lysed HCT116 cells from 2D and spheroids; type: cell-based, human; conditions: 12 h; for Caspase 3 activity, spheroid culture: HCT116 parental spheroids, 25 µM (cisplatin 15 μM); for Caspase 3 activity, 2D culture: HCT116 parental, 25 µM
Procedure: as §5

Row | IC50 (HCT116KO53 spheroids) [µM] | Structure (SMILES) | IC50 (BJ) [µM] | IC50 (K562) [µM] | IC50 (RAJI) [µM] | IC50 (HCT116 par) [µM] | IC50 (A549) [µM] | IC50 (U2OS) [µM] | IC50 (HCT116 par spheroids) [µM] | Caspase 8 activity, spheroid culture (caspase 8) | Caspase 3 activity, spheroid culture (caspase 3) | Caspase 3 activity, 2D culture (caspase 3) | Caspase 8 activity, 2D culture (caspase 8)
1 | > 50 | C=C1C(=O)C23CCC(C(=C)C)C(C)(CCC(=O)OC(C)=O)C2CCC1C3 (stereo not drawn) [Compound 7, Caracasine-Acetic Anhydride] | 7.68 | 4.6 | 2.21 | 2.12 | 3.72 | 2.21 | > 50 | absence of caspase activity | absence of caspase activity | significant changes | 
2 | > 50 | C=C(C)C1CCC23CC(CCC2C1(C)CCC(=O)OC(C)=O)C(C)C3=O (single isomer, unassigned; ent-3) [Compound 6, Ent-3,4-Seco-15-Oxo-Kaur-4(19)-en-Acetic Anhydride] | > 50 | > 50 | > 50 | > 50 | > 50 | > 50 | > 50 |  |  | did not induce caspase activity | did not induce caspase activity
3 | > 50 | C=C1C(=O)C23CCC(C(=C)C)C(C)(CCC(=O)OC)C2CCC1C3 (stereo not drawn) [Compound 2, Caracasine] | 7.28 | 3.29 | 1.45 | 2.02 | 8.39 | 3.19 | > 50 | absence of caspase activity | absence of caspase activity | significant changes | 
4 | > 50 | C=C(C)C1CCC23CC(CCC2C1(C)CCC(=O)O)C(C)C3=O (single isomer, unassigned; ent-3) [Compound 5, Ent-3,4-Seco-15-Oxo-Kaur-4(19)-en-3-Oic Acid] | > 50 | > 50 | > 50 | > 50 | > 50 | > 50 | > 50 |  |  | did not induce caspase activity | did not induce caspase activity

— article PMC12298629, “New Derivatives of Caracasine Acid with Anti-Leukemic Activity and Limited Effectiveness in Spheroid Cultures” (Pharmaceuticals, 2025)
